Laboratory results: paper PMC10829512, “Transport of metformin metabolites by guanidinium exporters of the small multidrug resistance family” (The Journal of General Physiology, 2024)

Legend:
Gdx-Clo = target: T1, Gdx-Clo (Clostridiales bacterium oral taxon 876, UniProt U2EQ00); assay: SSM electrophysiology of Gdx-Clo proteoliposomes; type: biochemical, Clostridales oral taxon 876; settings: 2 mM substrate
T1 sequence (U2EQ00 1-105): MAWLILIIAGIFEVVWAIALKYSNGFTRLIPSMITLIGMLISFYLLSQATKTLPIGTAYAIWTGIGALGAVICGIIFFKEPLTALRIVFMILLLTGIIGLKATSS
Description: (§1) Gdx-Clo ([Kermani et al., 2018]), Gdx-Eco ([Kermani et al., 2018]), EmrE ([Kermani et al., 2022]), and Gdx-pAmi ([Martinez-Vaz et al., 2022]) construct design and purification have been described previously. […] Proteins were overexpressed in C41(DE3). Expression was induced by the addition of 0.2 mM IPTG for 3 h. Cells were lysed and extracted with 2% n-decyl-β-D-maltoside (DM) for 2 h. After pelleting insoluble cell debris, proteins were purified using cobalt affinity resin. Wash buffer contained 25 mM Tris, pH 8.5, 150 mM NaCl, and 5 mM DM. For Gdx-pAmi, NaCl concentration was increased to 500 mM NaCl. The affinity column was washed with wash buffer, then wash buffer with 10 mM imidazole, prior to elution with wash buffer with 400 mM imidazole. For Gdx-Clo and Gdx-Eco, histidine tags were cleaved with LysC (200 ng/mg of protein; 2 h at room temperature; New England Biolabs), and for all others, histidine tags were cleaved with thrombin (1 U/mg of protein, overnight at room temperature; MilliporeSigma). Proteins were further purified using a gel filtration Superdex200 column (Cytiva) equilibrated with 100 mM NaCl, 10 mM N-2-hydroxyethylpiperazine-N′-2-ethanesulfonic acid (HEPES), pH 7.5, and 5 mM DM. Purified proteins were stored at 4°C for up to 5 days before detergent binding assays. To prepare proteoliposomes for electrophysiology assays, purified protein was mixed with E. coli polar lipid extract (10 mg/ml; Avanti Polar Lipids) solubilized with 35 mM 3-[(3-cholamidopropyl)dimethylammonio]-1-propanesulfonate (CHAPS) at a protein to lipid ratio of 40 μg SMR transporter: mg lipid (1:370 protein:lipid molar ratio) prior to detergent removal by dialysis. For preparations that included Fluc-Bpe, liposomes were reconstituted with a molar ratio of 0.3 Fluc-Bpe:1 SMRGdx: 5920 lipid (1 μg Fluc-Bpe and ∼2.5 μg SMRGdx per mg lipid). For liposome transport assays, proteoliposomes were prepared similarly, except that a 2:1 mixture of 1-palmitoyl, 2-oleoylphosphatidylethanolamine (POPE) and 1-palmitoyl, 2-oleoylphosphatidylglycerol (POPG) (10 mg/ml; Avanti Polar Lipids) was used with 0.2 μg protein/mg lipid. Proteoliposomes were stored at −80°C until use.
(§2) SSM experiments were performed using SURFE^2R N1 instrument (Nanion Technologies). Sensors were prepared with a 1,2-diphytanoyl-sn-glycero-3-phosphocholine (DPhPC) lipid monolayer according to published protocols ([Bazzone et al., 2017]). Each sensor’s capacitance and conductance were verified before use (<80 nF capacitance, <50 nS conductance) using Nanion software protocols. Proteoliposome stock was diluted 1:25 in assay buffer (100 mM KCl, 100 mM KPO4, pH 7.5) prior to adsorption to the DPhPC monolayer. For substrate screening experiments, reference substrate samples (Gdm^+ for SMRGdx, and TPA^+ for SMRQac) were checked periodically to test for the stability of the sensor; if the current amplitude of the reference compound differed by >10% on one sensor, it indicated the desorption of liposomes, and the sensor was not used for further experiments. For every SSM electrophysiology experiment, we used the same general solution exchange protocol: after 2 s perfusion with a non-activating solution, we perfused substrate-containing buffer for 2 s and then returned to the equilibrium condition with a 4 s perfusion of non-activating buffer. For experiments with the S104C/A70C crosslinked variant, reducing conditions were established by the addition of 2.5 mM tris(2-carboxyethyl)phosphine (TCEP) to the activating and non-activating buffers.
(§3) We screened a series of metformin metabolites for transport using SSM electrophysiology (Fig. 2, A and B).

Gdx-pAmi = assay: SSM electrophysiology of Gdx-pAmi proteoliposomes; type: biochemical, Aminobacter sp. MET; settings: 2 mM substrate
Description: as §1, §2, §3

Gdx-pPro = Gdx-pPro (Citrobacter freundii, UniProt O69279); settings: 2 mM substrate
Chain of Gdx-pPro (O69279 2-105): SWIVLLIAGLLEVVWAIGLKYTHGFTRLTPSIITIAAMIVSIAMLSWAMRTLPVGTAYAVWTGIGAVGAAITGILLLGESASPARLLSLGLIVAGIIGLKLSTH

Gdx-Eco = Gdx-Eco (Escherichia coli, UniProt P69937); assay: SSM electrophysiology of Gdx-Eco proteoliposomes; type: biochemical; settings: 2 mM substrate
Chain of Gdx-Eco (P69937 whole entry): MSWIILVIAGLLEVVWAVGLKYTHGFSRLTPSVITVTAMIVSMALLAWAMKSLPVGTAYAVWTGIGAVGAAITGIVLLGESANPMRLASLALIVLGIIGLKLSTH
Description: as §1, §2, §3

N=C(N)N = assay: purified protein, by the assay type; settings: other: Gdx-pPro, pH 7.5, mean ± SEM

Molecule | Transport currents in substrate screen (Gdx-Clo) | Transport currents in substrate screen (Gdx-pAmi) | Transport currents in substrate screen (Gdx-pPro) | Transport currents in substrate screen (Gdx-Eco) | Km (N=C(N)N) [µM]
CN(C)C(=N)N=C(N)N [Metformin, metformin] | currents barely above the detectable limit | currents barely above the detectable limit | currents barely above the detectable limit | currents barely above the detectable limit | –
CCCCNC(=N)NC(=N)N [buformin] | – | transported | transported | transported | –
CNC(=N)NC(=N)N [methylbiguanide] | – | transported | transported | transported | –
Gdx-pPro (Citrobacter freundii) | – | – | – | – | 2900 ± 500
